In one series the test system is ICR mice. The series can be described thus: Mice burden swimming test. In kind it is in vivo. The following applies: for Swimming time / Change rate of swimming time: gavage once a day, 30 days; for Swimming time: 6% body weight load; for Change rate of swimming time: vs normal control. As for the experimental part: According to the Technical Standards for Testing & Assessment of Health Food issued by the Ministry of Health, P. R. China, function and biochemistry indexes assessment of the mixture of 20(S)-protopanoxadiol and lycium barbarum polysaccharide on the function of relieving physical fatigue is conducted; the detailed method is given as follows:
(§1) 1. Experimental animals: ICR mice, male, 18-22 g, provided by Shanghai Slack laboratory animal Co. Ltd., license number: SCXK (Shanghai) 2007-0005;
20(S)-protopanoxadiol: provide by Shanghai Innovative Research Center of Traditional Chinese Medicine, batch number: 20050606-1, purity: 94%; lycium barbarum polysaccharide: provided by Shanghai KangZhou Fungi Extract Co. Ltd., polysaccharide content≧30%.
To 20(S)-protopanoxadiol is added a small amount of 0.3% CMC-Na, followed by grinding to form a suspension and diluting with CMC-Na to a desired concentration. Then lycium barbarum polysaccharide is added to the 20(S)-protopanoxadiol suspension to form a composition with a certain concentration.
(§2) 3. Experimental groups: the mice are randomly divided into 19 groups by weight, 20 mice per each group; the detailed groups are as follows:
(§3) 0.2 ml/10 g of drug is administrated by gavage every day; for normal control group, 0.2 ml/10 g of distilled water is administrated by gavage every day; once a day, 30 days in total.
30 minutes after the last time of administrating drug, the end of the tail of each mouse is loaded with copper wires corresponding to 6% of its body weight, then the mouse is put in a swimming box to swim, the time from start of swimming to death of the mouse is recorded, i.e. the mice burden swimming time; the water depth in the swimming box is 30 cm or more, and water temperature is 23+1.0° C.
5. Statistical data processing: t-test is conducted to calculate P value, Jin Zhengjun formula is used to conduct combined medication analysis.
Other than the combined dosage of Experimental example 1, the range of combined dosage is enlarged to conduct multi-batch experiments. The experimental animals, drugs and method are the same as those of Experimental example 1, and the final results are shown in Table 2: […]

Series [1] can be described thus: Animal weight during the 30-day gavage of the burden swimming study. In kind it is in vivo, mice. The following applies: gavage once a day, 30 days. As for the experimental part: as §1, §2, §3

Marks after values point to notes of the source that are not given here.

As to `CC(C)=CCC[C@](C)(O)[C@H]1CC[C@]2(C)[C@@H]1[C@H](O)C[C@@H]1[C@@]3(C)CC[C@H](O)C(C)(C)[C@@H]3CC[C@]12C` [20(S)-protopanoxadiol], the Swimming time with ICR mice (0.01 mg/kg) is reported as 640 ± 275 s; with ICR mice (0.5 mg/kg), 660 ± 268 s; in the series with ICR mice (1 mg/kg) it was 658 ± 296 s; with ICR mice (5 mg/kg) it was 640 ± 286 s. The “Change rate of swimming time” value in the series with ICR mice (0.01 mg/kg) came to 1.5%; with ICR mice (0.5 mg/kg), 1.9%; in the series on ICR mice (1 mg/kg), 2.2%; in the series on ICR mice (5 mg/kg) it was 1.5%. The “Swimming time change rate” value in the series on ICR mice (Table 2, 0.01 mg/kg) came to 1.5%; in the series with ICR mice (Table 2, 0.5 mg/kg), 1.9%; with ICR mice (Table 2, 1 mg/kg), 2.2%; in the series on ICR mice (Table 2, 3 mg/kg), 1.6%; in the series on ICR mice (Table 2, 6.25 mg/kg), 1.4%; in the series on ICR mice (Table 2, 12.5 mg/kg) it was 3.4%. Besides, the “Swimming time change rate” value is reported as 6.9% in the series with ICR mice (Table 2, 25 mg/kg) and 12.4* % in the series on ICR mice (Table 2, 50 mg/kg). For the same molecule, in the series with ICR mice (Table 2, single use, compared with normal control group (P>0.05)), the “Effect on mice swimming time (in words)” value is listed as “no significant effect on mice swimming time”. Besides, the “Animal weight start/finish (finish)” value in series [1] (0.01 mg/kg) is on record as 21.6/39.2 g; in series [1] (0.5 mg/kg), 21.8/38.8 g; in series [1] (1 mg/kg), 21.7/38.7 g; in series [1] (5 mg/kg), 21.8/38.9 g.
